Earlier results as cited in patent US20260263483A1, “LOW DOSE THERAPEUTIC SUPPLEMENT TO MODULATE CYTOKINES” (VIRBAC CORPORATION, priority 2023, published 2026).
Where two headings read alike, the source gives them in different places. Blank lines part the entries; values can stand above or below the molecule they belong to.

What was measured:
Wistar albino rats = conditions: gentamicin-induced renal damage, oral 2, 5 and 10 mg/kg in 14% DMSO
[1] = rats, administrated orally
diabetic rats [2] = tested on: diabetic rats
TGF-β1 = conditions: Balb/c 3T3 cells
diabetic rats [3] = conditions: 60 mg/kg p.o., five weeks
[4] = tested on: hepatic stellate cells (HSCs)

ingested ursolic acid recovered in plasma [1]: about 0.6%
concentration that inhibits the specific binding of TGF-β 1 by 50% (TGF-β1): 3.0 µg/mL
SMILES: C[C@H]1[C@H](C)CC[C@]2(C(=O)O)CC[C@]3(C)C(=CC[C@@H]4[C@@]5(C)CC[C@H](O)C(C)(C)C5CC[C@]43C)[C@H]12 (some centres unmarked) [ursolic acid]
reno-protective effect (Wistar albino rats): reno-protective effect
protective effects on diabetic rats (diabetic rats [2]; high-dose, 50 mg/kg): significant protective effects
protective effects on diabetic rats (diabetic rats [2]; low-dose, 25 mg/kg): significant protective effects

SMILES: CC1(C)CC[C@]2(C(=O)O)CC[C@]3(C)C(=CC[C@@H]4[C@@]5(C)CC[C@H](O)C(C)(C)[C@@H]5CC[C@]43C)[C@@H]2C1 [oleanolic acid]
kidney function (diabetic rats [3]): ameliorates kidney function
expression of cytokines and collagen (silicotic rats): decrease the expression of cytokines and collagen

SMILES: C=C(C)[C@@H]1CC[C@]2(CO)CC[C@]3(C)[C@H](CC[C@@H]4[C@@]5(C)CC[C@H](O)C(C)(C)[C@@H]5CC[C@]43C)[C@@H]12 [betulin]
ethanol-induced activation of hepatic stellate cells [4]: inhibited
